From ChEMBL document CHEMBL1201862, “PubChem BioAssay data set” (2004)
Activity calls are given as the source filed them.

Columns and labels:
[1] = target: T1, Ubiquitin-conjugating enzyme E2 N (Homo sapiens, UniProt P61088); assay type: functional;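 note: Dose-response confirmation in a TR-FRET assay detecting UBC13-driven polyubiquitin chain formation, inhibition measured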
T1 sequence (P61088 whole entry): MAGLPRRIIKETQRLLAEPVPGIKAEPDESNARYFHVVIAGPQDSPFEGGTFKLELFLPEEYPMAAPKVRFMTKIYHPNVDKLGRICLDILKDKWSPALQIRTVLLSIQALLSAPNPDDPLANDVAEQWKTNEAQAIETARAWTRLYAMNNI

[2] = target: T2, Caspase-3 (Homo sapiens, UniProt P42574); assay type: functional;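 note: Dose-response selectivity test against caspase-3 for candidate inhibitors of sentrin-specific proteases (SENPs)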
T2 sequence (P42574 whole entry): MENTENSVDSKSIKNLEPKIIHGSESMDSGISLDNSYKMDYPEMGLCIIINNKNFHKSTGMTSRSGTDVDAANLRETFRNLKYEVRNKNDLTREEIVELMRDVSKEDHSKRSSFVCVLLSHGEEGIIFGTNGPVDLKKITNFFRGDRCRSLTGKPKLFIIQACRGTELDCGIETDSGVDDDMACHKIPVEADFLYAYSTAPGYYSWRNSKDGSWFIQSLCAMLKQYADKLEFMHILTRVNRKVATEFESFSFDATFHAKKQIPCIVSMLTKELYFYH

[3] = target: T3, Sentrin-specific protease 8 (Homo sapiens, UniProt Q96LD8); assay type: functional;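 note: luminescence read-out of SENP8 inhibition, dose-response confirmation following an ultra-high-throughput screen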
T3 sequence (Q96LD8 whole entry): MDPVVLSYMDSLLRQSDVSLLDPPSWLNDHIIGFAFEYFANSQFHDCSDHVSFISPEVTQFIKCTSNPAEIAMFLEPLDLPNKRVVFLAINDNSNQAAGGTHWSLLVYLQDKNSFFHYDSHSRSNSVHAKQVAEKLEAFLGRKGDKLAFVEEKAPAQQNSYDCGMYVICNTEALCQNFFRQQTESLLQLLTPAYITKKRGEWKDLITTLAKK

[4] = target: T4, Sentrin-specific protease 7 (Homo sapiens, UniProt Q9BQF6); assay type: functional;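 note: Luminescence-based dose-response confirmation of ultra-high-throughput screening hits, measuring inhibition of SENP7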
T4 sequence (Q9BQF6 whole entry): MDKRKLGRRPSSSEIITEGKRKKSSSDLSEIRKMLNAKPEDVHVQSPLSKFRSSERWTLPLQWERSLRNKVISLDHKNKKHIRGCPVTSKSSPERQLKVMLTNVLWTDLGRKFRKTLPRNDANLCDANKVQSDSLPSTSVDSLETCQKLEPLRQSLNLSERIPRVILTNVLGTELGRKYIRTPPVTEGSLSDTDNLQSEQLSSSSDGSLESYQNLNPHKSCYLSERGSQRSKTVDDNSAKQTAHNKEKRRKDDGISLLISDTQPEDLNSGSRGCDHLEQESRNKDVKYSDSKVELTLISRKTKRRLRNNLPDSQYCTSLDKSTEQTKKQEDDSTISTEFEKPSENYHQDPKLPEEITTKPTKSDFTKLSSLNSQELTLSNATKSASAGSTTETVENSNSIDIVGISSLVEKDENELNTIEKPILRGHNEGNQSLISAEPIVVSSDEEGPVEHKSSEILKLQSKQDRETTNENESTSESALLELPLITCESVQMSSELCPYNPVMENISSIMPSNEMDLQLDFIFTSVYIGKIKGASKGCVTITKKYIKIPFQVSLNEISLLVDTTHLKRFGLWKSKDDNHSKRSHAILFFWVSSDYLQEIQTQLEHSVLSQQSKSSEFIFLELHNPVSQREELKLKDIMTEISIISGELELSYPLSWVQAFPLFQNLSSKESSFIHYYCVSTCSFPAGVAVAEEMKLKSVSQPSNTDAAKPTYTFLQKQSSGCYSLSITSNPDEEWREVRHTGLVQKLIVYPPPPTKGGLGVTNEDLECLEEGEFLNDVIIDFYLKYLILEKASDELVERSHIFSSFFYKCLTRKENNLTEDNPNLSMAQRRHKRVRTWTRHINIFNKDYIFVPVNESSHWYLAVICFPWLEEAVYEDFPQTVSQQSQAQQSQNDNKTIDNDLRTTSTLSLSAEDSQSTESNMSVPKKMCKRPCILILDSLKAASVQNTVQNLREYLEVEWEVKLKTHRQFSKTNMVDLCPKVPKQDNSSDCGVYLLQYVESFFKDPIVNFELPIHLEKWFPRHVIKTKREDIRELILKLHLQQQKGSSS

[5] = target: T5, Sentrin-specific protease 6 (Homo sapiens, UniProt Q9GZR1); assay type: functional;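 note: Luminescence-based dose-response confirmatory assay of SENP6 inhibition, following up an ultra-high-throughput screen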
T5 sequence (Q9GZR1 whole entry): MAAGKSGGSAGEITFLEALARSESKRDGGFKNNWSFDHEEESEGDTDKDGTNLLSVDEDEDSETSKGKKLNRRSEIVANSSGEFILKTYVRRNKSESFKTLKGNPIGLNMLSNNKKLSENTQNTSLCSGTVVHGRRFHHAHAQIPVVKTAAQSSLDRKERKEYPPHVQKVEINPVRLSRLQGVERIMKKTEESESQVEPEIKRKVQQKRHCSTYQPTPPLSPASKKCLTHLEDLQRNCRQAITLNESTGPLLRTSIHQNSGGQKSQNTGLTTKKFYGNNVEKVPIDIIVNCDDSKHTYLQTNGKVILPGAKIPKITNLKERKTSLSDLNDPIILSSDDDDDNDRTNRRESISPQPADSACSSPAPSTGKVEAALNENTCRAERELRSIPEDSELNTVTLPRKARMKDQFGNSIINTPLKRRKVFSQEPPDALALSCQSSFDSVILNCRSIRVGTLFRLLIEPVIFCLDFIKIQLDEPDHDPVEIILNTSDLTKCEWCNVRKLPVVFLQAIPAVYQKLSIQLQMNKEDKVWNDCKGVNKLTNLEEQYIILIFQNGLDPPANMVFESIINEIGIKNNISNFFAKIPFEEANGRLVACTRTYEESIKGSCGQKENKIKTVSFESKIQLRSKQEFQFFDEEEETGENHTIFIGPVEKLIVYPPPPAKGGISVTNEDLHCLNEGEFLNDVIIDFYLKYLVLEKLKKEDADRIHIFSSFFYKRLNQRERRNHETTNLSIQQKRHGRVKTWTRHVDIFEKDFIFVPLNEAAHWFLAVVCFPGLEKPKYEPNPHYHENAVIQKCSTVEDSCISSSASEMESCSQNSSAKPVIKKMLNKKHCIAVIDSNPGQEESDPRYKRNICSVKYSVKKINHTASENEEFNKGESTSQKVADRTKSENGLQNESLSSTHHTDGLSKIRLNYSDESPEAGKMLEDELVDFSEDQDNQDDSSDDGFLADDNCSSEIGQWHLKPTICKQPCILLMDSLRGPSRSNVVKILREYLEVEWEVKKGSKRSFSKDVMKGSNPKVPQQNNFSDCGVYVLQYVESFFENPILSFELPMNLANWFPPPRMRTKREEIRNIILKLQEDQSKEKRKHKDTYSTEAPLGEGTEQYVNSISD

[6] = NIH-3T3 fibroblast cytotoxicity, dose response, cytotoxicity control, cell-based, fluorescence, Alamar Blue, secondary assay (AID 2327); assay type: functional;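 note: NIH-3T3 mouse fibroblasts cultured with fluconazole at 8 µg/mL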
[7] = C. albicans growth with fluconazole, confirmation, fluorescence, retest (AID 2467); assay type: functional, cell-based
[8] = target: Cytochrome P450 2D6 (Homo sapiens, UniProt P10635);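 note: CYP2D6 member of a cytochrome P450 panel assay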
Chain of Cytochrome P450 2D6 (P10635 whole entry): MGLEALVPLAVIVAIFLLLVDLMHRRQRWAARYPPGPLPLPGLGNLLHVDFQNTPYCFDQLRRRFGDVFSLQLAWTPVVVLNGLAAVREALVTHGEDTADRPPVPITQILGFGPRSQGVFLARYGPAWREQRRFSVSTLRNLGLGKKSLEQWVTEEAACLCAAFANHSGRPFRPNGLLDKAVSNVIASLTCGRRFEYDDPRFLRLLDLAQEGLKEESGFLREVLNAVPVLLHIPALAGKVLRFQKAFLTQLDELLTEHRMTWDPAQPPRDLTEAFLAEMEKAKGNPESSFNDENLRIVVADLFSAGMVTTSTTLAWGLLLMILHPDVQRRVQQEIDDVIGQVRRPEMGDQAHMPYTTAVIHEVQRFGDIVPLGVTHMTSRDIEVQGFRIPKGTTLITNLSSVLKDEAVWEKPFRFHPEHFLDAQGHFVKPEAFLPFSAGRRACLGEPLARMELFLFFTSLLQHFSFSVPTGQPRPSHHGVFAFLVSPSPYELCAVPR

[9] = cells; assay type: functional
[10] = inhibitors of intracellular T. cruzi replication, confirmation, NIH3T3 host cells, beta-gal luminescence (AID 2044); assay type: functional, cell-based;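 note: intracellular parasites grown in NIH/3T3 mouse fibroblasts as host cells; luminescent beta-galactosidase reporter signal from transgenic T. cruzi replicating inside host cells; inhibitors lower the luminescence signal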
[11] = cytotoxicity toward NIH3T3 fibroblasts, dose response, counter-screen, cell-based, ATP luminescence, mouse fibroblasts (AID 2010); assay type: functional;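 note: cells exposed to compound for about 90 hours before reading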
[12] = target: T6, Protein skinhead-1 (Caenorhabditis elegans, UniProt P34707); assay type: functional
T6 sequence (P34707 whole entry): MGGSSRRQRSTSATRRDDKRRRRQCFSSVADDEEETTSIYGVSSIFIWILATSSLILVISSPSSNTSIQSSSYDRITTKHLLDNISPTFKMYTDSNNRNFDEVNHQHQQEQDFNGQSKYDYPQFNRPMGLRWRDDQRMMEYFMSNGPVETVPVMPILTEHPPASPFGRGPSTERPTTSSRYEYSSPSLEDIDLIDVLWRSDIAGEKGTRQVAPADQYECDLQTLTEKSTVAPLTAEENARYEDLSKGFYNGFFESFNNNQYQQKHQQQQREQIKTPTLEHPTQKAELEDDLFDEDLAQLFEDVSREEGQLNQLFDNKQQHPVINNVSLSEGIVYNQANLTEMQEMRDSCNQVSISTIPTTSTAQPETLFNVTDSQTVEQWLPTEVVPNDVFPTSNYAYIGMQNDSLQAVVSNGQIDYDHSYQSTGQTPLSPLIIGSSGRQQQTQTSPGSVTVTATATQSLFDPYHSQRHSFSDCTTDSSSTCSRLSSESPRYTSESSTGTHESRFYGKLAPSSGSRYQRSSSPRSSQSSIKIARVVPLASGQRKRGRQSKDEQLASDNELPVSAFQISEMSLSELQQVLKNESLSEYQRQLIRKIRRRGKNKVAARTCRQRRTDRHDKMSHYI

| SMILES | IC50 [2] | IC50 [3] | IC50 [4] | IC50 [5] | further results |
| --- | --- | --- | --- | --- | --- |
| COc1cccc(NC(=O)CN(C)C(=O)c2cccnc2Nc2cccc(C(F)(F)F)c2)c1 |  |  |  |  | IC50 [1]: > 20 µM (inactive) |
| CCOC(=O)/C(C#N)=C/c1ccc(N2CCCCC2)cc1 | 23.4 µM (active) | 31.6 µM (active) | 7.1 µM (active) | 41.4 µM (active) |  |
| c1ccc2c(C[C@@H]3CNCCN3CCCCC3CCCCC3)cccc2c1 |  |  |  |  | IC50 [1]: > 20 µM (inactive) |
| Clc1cccc(-c2ccc(-c3nc4ccccn4c3NCc3ccccc3)cc2)c1 | 12.9 µM (active) | 18 µM (active) | 7.22 µM (active) | 9.6 µM (active) |  |
| CC/C(C)=N/Nc1cccc([N+](=O)[O-])c1 |  |  |  |  | EC50 [6]: 19.8 µM (active); EC50 [7]: > 38 µM (not active) |
| C=CCn1c(SCc2ccc(C(=O)Nc3ccccc3)cc2)nnc1-c1ccccc1 |  |  |  |  | EC50 [6]: > 160 µM (inactive); AC50 [8]: 22.4 µM (inconclusive); EC50 [7]: > 38 µM (not active) |
| COc1ccc(C(=O)COC(=O)c2ccccc2O)c(OC)c1 | 27.6 µM (active) | 53.1 µM (active) | 8.26 µM (active) | 13.8 µM (active) | IC50 [9]: 36.9 µM (active) |
| COC(=O)C1CCN(C(=O)CN(C)Cc2ccc(C(C)(C)C)cc2)CC1 |  |  |  |  | EC50 [6]: > 150 µM (inactive); EC50 [10]: 513 nM (active); EC50 [7]: 1.43 µM (inconclusive); EC50 [11]: > 60 µM (not active) |
| COc1ccc(-n2nc(C(=O)NCc3cc(OC)ccc3OC)c3c4ccccc4n(C)c3c2=O)cc1 |  |  |  |  | IC50 [1]: > 20 µM (inactive) |
| O=C(OCc1ccccc1Cl)c1cccnc1Cl | 23.5 µM (active) | 27.3 µM (active) | 11.8 µM (active) | 36.6 µM (active) |  |
| Clc1ccccc1/C=C/c1ccnc2ccccc12 |  |  |  |  | IC50 [12]: 67.2 µM (inactive) |
| CCOC(=O)Nc1cccc2c1-c1ccc([N+](=O)[O-])cc1C2=O |  |  |  |  | IC50 [12]: > 100 µM (inactive) |
| O=C(Nc1ccccc1)Nc1ccccc1C(=O)NCc1ccccc1 | 39.4 µM (active) | > 100 µM (inactive) | 6.13 µM (active) | > 100 µM (inactive) |  |
| Cc1ccc(NC(=O)c2cc(-c3ccco3)on2)cc1C |  |  |  |  | IC50 [12]: > 100 µM (inactive) |
| Cc1nc(N)sc1C(=O)OCC(C)C |  |  |  |  | IC50 [1]: > 20 µM (inactive) |
| Cc1ccc(CN2CCC(n3nccc3NC(=O)c3ccccc3C)CC2)o1 |  |  |  |  | IC50 [12]: > 100 µM (inactive) |
| Brc1c(-c2ccccc2)nc2n1Cc1ccccc1-2 | 15 µM (active) | 7.57 µM (active) | 5.23 µM (active) | 6.75 µM (active) |  |
| N#Cc1cnn(-c2nc(O)c3c4c(sc3n2)CCCC4)c1N |  |  |  |  | EC50 [6]: 16.9 µM (active); EC50 [7]: 0.131 µM (active) |
| Cc1ccc(C(C(=O)NCC2CCCO2)N(C(=O)c2snc(C(N)=O)c2N)c2ccc(C(C)C)cc2)o1 (configuration not stated) |  |  |  |  | IC50 [1]: > 20 µM (inactive) |
| Cc1nc2c(C(=O)NCCC(C)C)cnn2c(O)c1Cc1ccccc1F |  |  |  |  | EC50 [6]: > 150 µM (inactive); EC50 [7]: 4.22 µM (active) |
